Experimental data from PubChem BioAssay (NCI).
“And” between values parts separate entries of the source, which are not always exact repeats. Equal values may be shown once.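 Results reflect a 48-hour exposure of cells in 96-well plates to compound at five concentrations. Abbreviation: GI50, concentration required for 50% inhibition of growth. The concentration for full growth arrest is given as TGI.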

How the values were obtained:
Assay in all cases: growth of human tumour cells (NCI), 48 h
786-0 renal = test system: 786-0 renal
A498 renal = test system: A498 renal
IGROV1 ovarian = test system: IGROV1 ovarian
K-562 leukemia = test system: K-562 leukemia
NCI-H23 lung = test system: NCI-H23 lung
NCI-H522 lung = test system: NCI-H522 lung
OVCAR-5 ovarian = test system: OVCAR-5 ovarian
SF-539 CNS = test system: SF-539 CNS
SNB-75 CNS = test system: SNB-75 CNS
UACC-62 melanoma = test system: UACC-62 melanoma

SMILES	GI50 (786-0 renal)	TGI (786-0 renal)	GI50 (A498 renal)	TGI (A498 renal)	GI50 (IGROV1 ovarian)	TGI (IGROV1 ovarian)	GI50 (K-562 leukemia)	TGI (K-562 leukemia)	GI50 (NCI-H23 lung)	TGI (NCI-H23 lung)	GI50 (NCI-H522 lung)	TGI (NCI-H522 lung)	GI50 (OVCAR-5 ovarian)	TGI (OVCAR-5 ovarian)	GI50 (SF-539 CNS)	TGI (SF-539 CNS)	GI50 (SNB-75 CNS)	TGI (SNB-75 CNS)	GI50 (UACC-62 melanoma)	TGI (UACC-62 melanoma)
O=C1C2C(C(=O)[N]1[Hg][c]1cccs1)C1(Cl)C(Cl)=C(Cl)C2(Cl)C1(Cl)Cl (centres undefined)	0.67 µM	1.81 µM	2.29 µM	6.05 µM	1.29 µM	3.52 µM	0.291 µM	3.41 µM	1.62 µM	3.14 µM	0.162 µM	0.432 µM	1.85 µM	3.61 µM	2.08 µM	4.76 µM	1.37 µM	4.81 µM	1.27 µM	2.89 µM
COc1cc2c(cc1OCCCCCOc1cc3c(cc1OC)C(=O)N1CC(F)C[C@H]1C=N3)N=C[C@@H]1CC(F)CN1C2=O (some centres undefined)	< 0.01 µM	0.16 µM	0.0863 µM	0.217 µM	0.0599 µM	–	0.0325 µM	1.94 µM	< 0.0373 µM	0.394 µM	0.0372 µM	0.204 µM	0.117 µM	3.25 µM	0.0161 µM	0.458 µM	0.0488 µM	> 100 µM	0.0511 µM	0.224 µM
Oc1ccc(CN2CCC(N3CCOCC3)CC2)c2cccnc12	42.2 µM	> 100 µM	> 100 µM	> 100 µM	30.9 µM	> 100 µM	28.1 µM	> 100 µM	35 µM	> 100 µM	26.5 µM	61.2 µM	86.9 µM	> 100 µM	24.2 µM	> 100 µM	11.9 µM	> 100 µM	21.3 µM	50.2 µM
Nc1ccccc1-c1ccc([N+](=O)[O-])cc1	9.16 µM	> 100 µM	29 µM	> 100 µM	19 µM	> 100 µM	1.32 µM	> 100 µM	26.6 µM	> 100 µM	11.2 µM	> 100 µM	31.8 µM	> 100 µM	3.92 µM	63 µM	> 100 µM	> 100 µM	0.756 µM	19.4 µM
COc1cc(-n2cc(-c3ccc(F)cc3)nc2SCc2ccccc2)cc(OC)c1OC	> 100 µM	> 100 µM	37.4 µM	> 100 µM	> 100 µM	> 100 µM	8.1 µM	> 100 µM	> 100 µM	> 100 µM	89.8 µM	> 100 µM	> 100 µM	> 100 µM	> 100 µM	> 100 µM	> 100 µM	> 100 µM	> 100 µM	> 100 µM
CC(C)c1c(C(=O)Nc2ccccc2)c(-c2ccccc2)c(-c2ccc(F)cc2)n1CC[C@@H]1CC=CC(=O)O1	1.68 µM	3.56 µM	4.92 µM	19.1 µM	2.3 µM	5.41 µM	0.422 µM	2.62 µM	2.03 µM	4.04 µM	1.5 µM	2.98 µM	2.05 µM	5.02 µM	1.61 µM	3.14 µM	1.43 µM	2.78 µM	1.7 µM	3.37 µM
O=c1ccc(N=Nc2ccc([N+](=O)[O-])cc2)ccc1O	5.99 µM	> 100 µM	> 100 µM	> 100 µM	6.33 µM	> 100 µM	3.83 µM	> 100 µM	6.37 µM	> 100 µM	3.42 µM	28.3 µM	30.1 µM	> 100 µM	4.38 µM	> 100 µM	10.8 µM	> 100 µM	8.45 µM	43.9 µM
CC(C)(O)C#Cc1ccc(/C=C/C(=O)c2ccccc2)s1	14.8 µM	28.8 µM	17.7 µM	32.2 µM	14.7 µM	27.8 µM	16.5 µM	56.3 µM	16.9 µM	34.7 µM	16 µM	32.7 µM	16.5 µM	32 µM	15.8 µM	29.2 µM	13.7 µM	27 µM	13.7 µM	26.6 µM
COc1cc2c(cc1O)-c1c(cnn1-c1ccc([N+](=O)[O-])cc1)CCC2	–	> 100 µM	–	80.3 µM	–	18.7 µM	–	> 100 µM	–	41.9 µM	–	40.9 µM	–	61.2 µM	–	33.4 µM	–	> 100 µM	–	8.42 µM
O=C1c2cccnc2C(=O)C2C3C=CC(C3)C12 (centres undefined)	–	24.2 µM	–	44.7 µM	–	24 µM	–	34.9 µM	–	58 µM	–	13.8 µM	–	35.8 µM	–	13.4 µM	–	25.8 µM	–	9.94 µM
COc1ccc2c(c1)=C(C=C1C=CN(O)C=C1)C(=O)N=2	31 µM	> 92.3 µM	19.7 µM	> 73.2 µM	16.2 µM	> 94.4 µM	3.55 µM	> 100 µM	23.8 µM	72.3 µM	20.5 µM	61.6 µM	12.7 µM	50.8 µM	28.8 µM	> 65.8 µM	15.6 µM	> 88.4 µM	26.3 µM	86.1 µM
COc1ccc(-n2cc(-c3cc(OC)c(OC)c(OC)c3)nc2SCc2ccccc2)cc1	> 100 µM	> 100 µM	> 100 µM	> 100 µM	> 100 µM	> 100 µM	9.43 µM	> 100 µM	> 100 µM	> 100 µM	31.5 µM	> 100 µM	> 100 µM	> 100 µM	> 100 µM	> 100 µM	7.04 µM	66.8 µM	42.2 µM	> 100 µM
N=C(N)c1ccc(OCCOCCOc2ccc(C(=N)N)cc2)cc1	> 100 µM	> 100 µM	63.7 µM	> 100 µM	> 100 µM	> 100 µM	63.3 µM	> 100 µM	78 µM	> 100 µM	45.5 µM	> 100 µM	> 100 µM	> 100 µM	35.3 µM	> 100 µM	> 100 µM	> 100 µM	> 100 µM	> 100 µM
S=C(N/N=C(/c1ccccc1)c1ccccn1)N1CCCCC1	< 0.001 µM	1.87 µM and 1.88 µM	0.0815 µM	1.43 µM and 2.37 µM	< 0.001 µM	1.65 µM and 2.56 µM	< 0.001 µM	< 0.001 µM	–	1.74 µM	0.422 µM	3.13 µM and 1.71 µM	< 0.001 µM	2.49 µM and 2.11 µM	0.265 µM	1.85 µM and 2.09 µM	–	2.92 µM	0.965 µM	3.16 µM
Clc1ccc(/C=C/c2cc(N3CCOCC3)c3cc(Cl)c(Cl)cc3n2)cc1	1.37 µM	> 100 µM	> 100 µM	> 100 µM	> 100 µM	> 100 µM	> 100 µM	> 100 µM	> 100 µM	> 100 µM	1.86 µM	> 100 µM	> 100 µM	> 100 µM	> 100 µM	> 100 µM	> 100 µM	> 100 µM	> 100 µM	> 100 µM
CCN1/C(=C/C=C/c2n(-c3ccccc3)c3ccc(-c4nc5ccccc5s4)cc3[n+]2CC)N(c2ccccc2)c2ccc(-c3nc4ccccc4s3)cc21	0.602 µM	> 50 µM	0.246 µM	2.39 µM	0.75 µM	> 50 µM	0.471 µM	> 50 µM	0.533 µM	5.08 µM	0.585 µM	3.41 µM	1.53 µM	> 50 µM	0.854 µM	5.75 µM	0.347 µM	> 46.7 µM	0.97 µM	> 50 µM
C/C=C/C/C=C/CCC(=O)[C@H]1O[C@H]1C(N)=O	14.8 µM	36.1 µM	17.4 µM	43.7 µM	13.5 µM	33.3 µM	19 µM	> 86.8 µM	–	29.9 µM	–	25.6 µM	16.8 µM	31.4 µM	–	31.8 µM	10 µM	25 µM	11.4 µM	23.9 µM
Nc1nc(N)c(Cn2ccnc2)c(=O)[nH]1	–	> 100 µM	–	> 100 µM	–	> 100 µM	–	> 100 µM	–	> 100 µM	–	> 100 µM	–	> 100 µM	–	> 100 µM	–	> 100 µM	–	> 100 µM
